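Each compound was tested at five concentrations against cells in 96-well plates for 48 hours. Here, GI50 denotes the concentration required for 50% inhibition of growth. TGI: concentration producing complete growth inhibition.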
Experiments:
Assay in all cases: NCI tumour cell line growth inhibition, 48 h
MOLT-4 leukemia = tested on: MOLT-4 leukemia
RXF 393 renal = tested on: RXF 393 renal
NCI/ADR-RES ovarian = tested on: NCI/ADR-RES ovarian
OVCAR-8 ovarian = tested on: OVCAR-8 ovarian
OVCAR-5 ovarian = tested on: OVCAR-5 ovarian
A498 renal = tested on: A498 renal
HCC-2998 colon = tested on: HCC-2998 colon
SNB-19 CNS = tested on: SNB-19 CNS
SN12C renal = tested on: SN12C renal
SF-539 CNS = tested on: SF-539 CNS

## Cc1ccc(-c2c(-c3ccccc3)[nH]c(C)c2C(=O)ONC(=O)c2ccccc2)cc1
MOLT-4 leukemia
  TGI: 7.73 µM
RXF 393 renal
  TGI: 5.83 µM
NCI/ADR-RES ovarian
  TGI: 18.3 µM
OVCAR-8 ovarian
  TGI: 18.5 µM
OVCAR-5 ovarian
  TGI: 32.3 µM
A498 renal
  TGI: 25.5 µM
HCC-2998 colon
  TGI: 28.9 µM
SNB-19 CNS
  TGI: 20.1 µM
SN12C renal
  TGI: 8.36 µM
SF-539 CNS
  TGI: 8.06 µM

## O=C(c1cccs1)c1nccc2c1cnc1ccccc12
MOLT-4 leukemia
  TGI: > 100 µM
RXF 393 renal
  TGI: 21.2 µM
NCI/ADR-RES ovarian
  TGI: > 100 µM
OVCAR-8 ovarian
  TGI: > 100 µM
OVCAR-5 ovarian
  TGI: > 100 µM
A498 renal
  TGI: > 100 µM
HCC-2998 colon
  TGI: > 100 µM
SNB-19 CNS
  TGI: > 100 µM
SN12C renal
  TGI: > 100 µM
SF-539 CNS
  TGI: > 100 µM

## O=C1C[C@@]23CCC4(CC2CCC[C@H]3O1)OCCO4 (stereo not given in full)
MOLT-4 leukemia
  TGI: > 100 µM
RXF 393 renal
  TGI: > 100 µM
NCI/ADR-RES ovarian
  TGI: > 100 µM
OVCAR-8 ovarian
  TGI: > 100 µM
OVCAR-5 ovarian
  TGI: > 100 µM
A498 renal
  TGI: > 100 µM
HCC-2998 colon
  TGI: > 100 µM
SNB-19 CNS
  TGI: > 100 µM
SN12C renal
  TGI: > 100 µM
SF-539 CNS
  TGI: > 100 µM

## O=C(Cn1cc(Br)c(=O)[nH]c1=O)c1ccc(-c2ccccc2)cc1
MOLT-4 leukemia
  TGI: > 27.5 µM
RXF 393 renal
  TGI: > 100 µM
NCI/ADR-RES ovarian
  TGI: > 100 µM
OVCAR-8 ovarian
  TGI: 76.5 µM
OVCAR-5 ovarian
  TGI: > 27.5 µM
A498 renal
  TGI: > 100 µM
HCC-2998 colon
  TGI: > 28.7 µM
SNB-19 CNS
  TGI: 13.2 µM
SN12C renal
  TGI: > 100 µM
SF-539 CNS
  TGI: > 19.8 µM

## CCOC(=O)c1cn2c(n1)sc1cc(OC)ccc12
MOLT-4 leukemia
  TGI: > 100 µM
RXF 393 renal
  TGI: 64.1 µM
NCI/ADR-RES ovarian
  TGI: > 87.3 µM
OVCAR-8 ovarian
  TGI: > 100 µM
OVCAR-5 ovarian
  TGI: > 100 µM
A498 renal
  TGI: > 100 µM
HCC-2998 colon
  TGI: > 100 µM
SNB-19 CNS
  TGI: > 100 µM
SN12C renal
  TGI: > 100 µM
SF-539 CNS
  TGI: > 100 µM

## O=[N+]([O-])C(/C(Cl)=C(\Cl)Br)=C(/Cl)SCc1ccccc1
MOLT-4 leukemia
  TGI: 3.35 µM
RXF 393 renal
  TGI: 4.85 µM
NCI/ADR-RES ovarian
  TGI: 8.62 µM
OVCAR-8 ovarian
  TGI: 8.13 µM
OVCAR-5 ovarian
  TGI: 26.2 µM
A498 renal
  TGI: 21.2 µM
HCC-2998 colon
  TGI: 25.1 µM
SNB-19 CNS
  TGI: 38.8 µM
SN12C renal
  TGI: 11.3 µM
SF-539 CNS
  TGI: 25.5 µM

## Cc1ccc(S(=O)(=O)CNC(=O)C(O)(O)C(F)(F)F)cc1
MOLT-4 leukemia
  TGI: > 100 µM
RXF 393 renal
  TGI: > 100 µM
NCI/ADR-RES ovarian
  TGI: > 100 µM
OVCAR-8 ovarian
  TGI: > 100 µM
OVCAR-5 ovarian
  TGI: > 100 µM
A498 renal
  TGI: > 100 µM
HCC-2998 colon
  TGI: > 100 µM
SNB-19 CNS
  TGI: > 100 µM
SN12C renal
  TGI: > 100 µM
SF-539 CNS
  TGI: > 100 µM

## Nc1ccc(-c2nc3ccc(F)cc3s2)cc1Cl
MOLT-4 leukemia
  TGI: > 100 µM
RXF 393 renal
  TGI: > 73.8 µM
NCI/ADR-RES ovarian
  TGI: > 100 µM
OVCAR-8 ovarian
  TGI: > 100 µM
OVCAR-5 ovarian
  TGI: > 100 µM
A498 renal
  TGI: > 100 µM
HCC-2998 colon
  TGI: > 100 µM
SNB-19 CNS
  TGI: > 100 µM
SN12C renal
  TGI: > 100 µM
SF-539 CNS
  TGI: > 100 µM

## Cc1ccc2nc3n[nH]c(N)c3nc2c1
MOLT-4 leukemia
  TGI: > 100 µM
RXF 393 renal
  TGI: > 100 µM
NCI/ADR-RES ovarian
  TGI: > 100 µM
OVCAR-8 ovarian
  TGI: > 100 µM
OVCAR-5 ovarian
  TGI: > 100 µM
A498 renal
  TGI: > 100 µM
HCC-2998 colon
  TGI: > 100 µM
SNB-19 CNS
  TGI: > 100 µM
SN12C renal
  TGI: > 100 µM
SF-539 CNS
  TGI: > 100 µM

## Clc1ccc(-c2cc(-c3cc4cc(Br)ccc4nc3Cl)on2)cc1
MOLT-4 leukemia
  TGI: 47.3 µM
RXF 393 renal
  TGI: 43.9 µM
NCI/ADR-RES ovarian
  TGI: 37.9 µM
OVCAR-8 ovarian
  TGI: > 50 µM
OVCAR-5 ovarian
  TGI: > 50 µM
A498 renal
  TGI: 41.9 µM
HCC-2998 colon
  TGI: 23.9 µM
SNB-19 CNS
  TGI: > 50 µM
SN12C renal
  TGI: > 50 µM
SF-539 CNS
  TGI: 17.5 µM

## COc1cc(/C=C2\C[C@H]3[C@@H]4CCC5=CC(=O)CC[C@]5(C)[C@H]4CC[C@]3(C)C2=O)cc(OC)c1OC
MOLT-4 leukemia
  TGI: > 100 µM
RXF 393 renal
  TGI: > 100 µM
NCI/ADR-RES ovarian
  TGI: > 100 µM
OVCAR-8 ovarian
  TGI: > 100 µM
OVCAR-5 ovarian
  TGI: > 100 µM
A498 renal
  TGI: > 100 µM
HCC-2998 colon
  TGI: > 100 µM
SNB-19 CNS
  TGI: > 100 µM
SN12C renal
  TGI: > 100 µM
SF-539 CNS
  TGI: > 100 µM

## C/C(=N\NC(=O)c1ccc(Cl)cc1)c1nc2ncccc2[nH]1
MOLT-4 leukemia
  TGI: 90.6 µM
RXF 393 renal
  TGI: 55.4 µM
NCI/ADR-RES ovarian
  TGI: 50.1 µM
OVCAR-8 ovarian
  TGI: 58.6 µM
OVCAR-5 ovarian
  TGI: > 100 µM
A498 renal
  TGI: > 100 µM
HCC-2998 colon
  TGI: > 100 µM
SNB-19 CNS
  TGI: > 100 µM
SN12C renal
  TGI: > 100 µM
SF-539 CNS
  TGI: 40.3 µM

## Cc1cn(-c2cccc(NC(=O)c3ccc(C)c(Nc4nccc(-c5cccnc5)n4)c3)c2)cn1
MOLT-4 leukemia
  GI50: 1.92 µM
  TGI: 6.56 µM
RXF 393 renal
  GI50: 1.62 µM
  TGI: 3.03 µM
NCI/ADR-RES ovarian
  GI50: 2.83 µM
  TGI: 10.1 µM
OVCAR-8 ovarian
  GI50: 1.1 µM
  TGI: 2.5 µM
OVCAR-5 ovarian
  GI50: 1.88 µM
  TGI: 3.68 µM
A498 renal
  GI50: 10.9 µM
  TGI: 23 µM
HCC-2998 colon
  GI50: 3.05 µM
  TGI: 8.02 µM
SNB-19 CNS
  GI50: 2.4 µM
  TGI: > 100 µM
SN12C renal
  GI50: 2.1 µM
  TGI: 4.7 µM
SF-539 CNS
  GI50: 1.45 µM
  TGI: 2.97 µM

## O=[N+]([O-])c1ccc(C2ON=C(c3ccccc3)N2C23CC4CC(CC(C4)C2)C3)cc1 (stereo not given)
MOLT-4 leukemia
  TGI: > 10 µM
RXF 393 renal
  TGI: > 10 µM
NCI/ADR-RES ovarian
  TGI: > 10 µM
OVCAR-8 ovarian
  TGI: > 10 µM
OVCAR-5 ovarian
  TGI: > 10 µM
A498 renal
  TGI: > 10 µM
HCC-2998 colon
  TGI: > 10 µM
SNB-19 CNS
  TGI: > 10 µM
SN12C renal
  TGI: > 10 µM
SF-539 CNS
  TGI: > 10 µM

## O=C(/C=C1\Sc2ccccc2N=C1CC(=O)c1ccccc1)c1ccccc1
MOLT-4 leukemia
  TGI: 24.7 µM
RXF 393 renal
  TGI: > 100 µM
NCI/ADR-RES ovarian
  TGI: 18.7 µM
OVCAR-8 ovarian
  TGI: 37 µM
OVCAR-5 ovarian
  TGI: 61.4 µM
A498 renal
  TGI: > 100 µM
HCC-2998 colon
  TGI: 26.2 µM
SNB-19 CNS
  TGI: > 100 µM
SN12C renal
  TGI: 39.4 µM
SF-539 CNS
  TGI: 34.7 µM

## CCCCCCCCC/C=C1/CC(CO)(COC(=O)CC(C(C)C)C(C)C)OC1=O (stereo not given)
MOLT-4 leukemia
  TGI: 35.4 µM
RXF 393 renal
  TGI: 27.8 µM
NCI/ADR-RES ovarian
  TGI: 28.1 µM
OVCAR-8 ovarian
  TGI: 29.8 µM
OVCAR-5 ovarian
  TGI: 24.6 µM
A498 renal
  TGI: 12.6 µM
HCC-2998 colon
  TGI: 9.86 µM
SNB-19 CNS
  TGI: 23.9 µM
SN12C renal
  TGI: 18 µM
SF-539 CNS
  TGI: 24.2 µM

## COc1cc(C(=O)Oc2c(C(C)=O)sc3c2c(=O)n(-c2ccccc2)c(=S)n3-c2ccccc2)cc(OC)c1OC
MOLT-4 leukemia
  TGI: 50.5 µM
RXF 393 renal
  TGI: 41.6 µM
NCI/ADR-RES ovarian
  TGI: 43.5 µM
OVCAR-8 ovarian
  TGI: 53.7 µM
OVCAR-5 ovarian
  TGI: 43.2 µM
A498 renal
  TGI: 28.3 µM
HCC-2998 colon
  TGI: 55.6 µM
SNB-19 CNS
  TGI: 68 µM
SN12C renal
  TGI: 27.4 µM
SF-539 CNS
  TGI: 32.5 µM
